According to patent publication US20090227487A1, “METHODS FOR THE CONTROL OF MACROPHAGE-ASSOCIATED INFLAMMATION” (priority 2008, published 2009):

What was measured:
Format in all cases: cell-based, murine
Raw 264.7 macrophages [1] = test: PMMA particle-induced TNF-α release from macrophages preincubated with MyD88 inhibitory peptide or control peptide (ELISA); details: 100 μM peptide, 24 h preincubation, PMMA particles 0.30% v/v, p<0.01
Protocol: MyD88 inhibitory peptide experiments: The murine monocyte/macrophage cell line Raw 264.7 was cultured in DMEM containing 10% (v/v) FBS (5% CO2, 37° C.). Cells were plated in 24-well tissue culture plates at 1×10^5 cells/well in 1 ml of media with serum and allowed to adhere for 24 hours. […] Following the preincubation period in each group, PMMA particles (Polysciences, 1-10 μm) were added at a dose of 0.30% v/v. Each group was plated in triplicate and the experiment was repeated three times.
Quantification of TNF-α release: Macrophages were exposed to PMMA particles and samples from the culture media were collected at 1, 4, and 12 hours post challenge. TNF-α levels were quantified using ELISA kits. Data were analyzed by ANOVA.
(§1) Preparation of particles: PMMA particles were washed 5× with 70% ethanol and incubated overnight with shaking at 4° C. The particles were then washed 3× with DPBS and resuspended to a concentration of 16% v/v. The particles were free of endotoxin using a high-sensitivity Limulus amoebocyte lysate assay (BioWhittaker).

Raw 264.7 macrophages [2] = test: LPS-induced TNF-α release from macrophages with or without polymyxin B (ELISA); details: 12 h
Protocol: (§2) Polymyxin B preparation: Polymyxin B was prepared fresh before each use and added to cell cultures at a concentration of 10 μg/ml.
Raw264.7 macrophage cell culture experiments: The murine monocyte/macrophage cell line Raw 264.7 was cultured in DMEM containing 10% (v/v) FBS (5% CO2, 37° C.). Cells were plated in 24-well tissue culture plates at 1×10^5 cells/well in 1 ml of media with serum and allowed to adhere for 24 hours. The media was then replaced with 1 ml of media containing one of four conditions: 1) media alone; 2) 10 μg/ml of polymyxin B; 3) 500 pg/ml of LPS (E. coli 055:B5, Sigma); 4) 500 pg/ml LPS and 10 μg/ml polymyxin B. TNF-α release was measured at 12 h after incubation using ELISA. Each group was plated in triplicate and the experiment was repeated two times. Data were analyzed by ANOVA. A p-value <0.05 was considered significant.

Raw 264.7 macrophages [3] = test: PMMA particle-induced TNF-α release from macrophages with or without polymyxin B (ELISA); details: 0.30% PMMA particles plus 10 μg/ml polymyxin B
Protocol: as §1, §2
Quantification of TNF-α release with wear debris particles: Macrophages were cultured as above. The media was then replaced with 1 ml of media containing one of three conditions: 1) media alone; 2) PMMA particles at a dose of 0.30% v/v; 3) 0.30% PMMA particles plus 10 μg/ml of polymyxin B. TNF-α levels were measured at 1, 4, and 12 hours post challenge.

Substance	decrease of particle-induced TNF-α release (Raw 264.7 macrophages [1]; 4 h post challenge)	decrease of particle-induced TNF-α release (Raw 264.7 macrophages [1]; 12 h post challenge)	TNF-α levels (Raw 264.7 macrophages [2]; 500 pg/ml LPS plus 10 μg/ml polymyxin B)	TNF-α release compared to macrophages alone (Raw 264.7 macrophages [2]; 10 μg/ml polymyxin B alone, no LPS)	effect on particle-induced TNF-α release (Raw 264.7 macrophages [3]; 4 h)	decrease of particle-induced TNF-α release (Raw 264.7 macrophages [3]; 12 h, non-significant)	effect on particle-induced TNF-α release (Raw 264.7 macrophages [3]; overall statement)
MyD88 inhibitory peptide: MyD88 homodimerization inhibitory peptide (Imgenex), which binds the MyD88 monomer, blocking MyD88 activation; possibly DRQIKIWFQNRRMKWKKRDVLPGT of b57	63%	32%	–	–	–	–	–
Polymyxin B	–	–	1120 pg/mL	no significant difference	did not alter	25%	no significant effect
